These results are taken from patent US8183364B2, “Substituted porphyrins” (Duke University, priority 2004, dated 2012).

Test [1] is described as follows: Catalysis of O2.^− dismutation by pulse radiolysis. The format is biochemical. Conditions: for log kcat for O2^− dismutation: pulse radiolysis, pH 7.8, (22 ± 1) °C, kcat ±30%. How it is done: Catalysis of O2.^− dismutation. The catalytic rate constants for the O2.^− dismutation were determined by pulse radiolysis in 0.05 M phosphate buffer (pH 7.8) at (22±1)° C. as previously described (Batinic-Haberle et al, Inorg. Chem. 40:726 (2001)). In the present study 10 mM formate was used as a scavenger for H. atoms and .OH radicals, which leads first to production of CO2.^− radicals and then to O2.^− radicals. This system is known to lead to conversion of all primary radicals of water radiolysis into O2.^−.
Catalysis of O2.^− dismutation. Pulse radiolysis was used to assess the SOD-like activities of the Mn porphyrins studied. The initial concentration of O2.^− produced by the pulse was about 27 μM, and the concentration of the Mn porphyrin was between 0.5 and 5 μM. The dismutation of O2.^− was followed at 280 nm. The catalytic rate constant was determined from the linear dependence of kobs upon the concentration of the catalyst (Batinic-Haberle et al, Inorg. Chem. 40:726 (2001)). All the new compounds have high O2.^− dismuting ability. The magnitude of the catalysis is due to the interplay of the electron-withdrawing effects of quaternized ortho pyridyl or di-ortho imidazolyl groups, favorable electrostatics, and the solvation of the metal site.

The test system of test [2] is SOD-deficient JI132 E. coli. Put plainly: Aerobic growth of SOD-deficient E. coli. Particulars: for aerobic growth of SOD-deficient E. coli: 5AA minimal medium. The format is cell-based. A digest of the protocol: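 Strains were AB1157 and its sodA sodB mutant JI132, precultured overnight in M9CA at 37 °C, then diluted to 3×10^7 cells/mL in M9CA or, after washing, in 5AA minimal medium. Mn porphyrins at 0.1 to 30 μM were present during aerobic shaking at 37 °C. Growth rate was followed by turbidity at 700 nm.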

Structures are written as SMILES.

On to `COCC[n+]1ccccc1-c1c2nc(c(-c3cccc[n+]3CCOC)c3ccc([n-]3)c(-c3cccc[n+]3CCOC)c3nc(c(-c4cccc[n+]4CCOC)c4ccc1[n-]4)C=C3)C=C2.[Mn+3]` [MnTMOE-2-PyP^5+, Mn(III) tetrakis 5,10,15,20-tetrakis[N-(2-methoxyethyl)pyridinium-2-yl]porphyrin], for which the “log kcat for O2^− dismutation” value in test [1] is given as 8.04. Moreover, the “SOD-like activity relative to MnTE-2-PyP^5+” value in test [1] (vs MnTE-2-PyP^5+) was “two-fold higher”. Moreover, in test [1] (vs MnTnBu-2-PyP^5+), the “kcat higher than MnTnBu-2-PyP^5+” value is 6 fold. For the same compound, in test [2] (25 μM), the “aerobic growth of SOD-deficient E. coli” value was “not far behind”.

Consider `COCCn1cc[n+](CCOC)c1-c1c2nc(c(-c3n(CCOC)cc[n+]3CCOC)c3ccc([n-]3)c(-c3n(CCOC)cc[n+]3CCOC)c3nc(c(-c4n(CCOC)cc[n+]4CCOC)c4ccc1[n-]4)C=C3)C=C2.[Mn+3]` [MnTDMOE-2-ImP^5+, Mn(III) tetrakis 5,10,15,20-tetrakis[N,N′-di(2-methoxyethyl)imidazolium-2-yl]porphyrin], for which the “log kcat for O2^− dismutation” value in test [1] is on record as 7.59. For the same compound, the “aerobic growth of SOD-deficient E. coli” value in test [2] (3 μM) is “the most effective methoxyethyl porphyrin”; in test [2] (25 μM), “not far behind”. The “protection of SOD-deficient E. coli” value in test [2] (M9CA medium, 3 μM) was “the most effective (next to n-butyl and n-hexyl)”. In addition, the “protection of E. coli from oxidative stress” value in test [2] (≦3 μM levels (FIG. 10: 5AA minimal medium)) was “the most protective”.
